From patent publication US6703420B1, “Amino-thio-acrylonitriles as MEK inhibitors” (Bristol-Myers Squibb Pharma Company, priority 1999, dated 2004)
Read-outs that look alike come from different tables or passages of the source.

Tests used:
[1] = test system: ERK; conditions: fMLP- and LTB4-stimulated
[2] = test system: SMC; conditions: serum starved SMC
[3] = test system: ERK; conditions: PMA/ionomycin, Con A stimulation, antigen with costimulation; cited from earlier work
[4] = test system: activated MEK; conditions: cited from earlier work; for type of inhibition, comparative kinetic analysis: activated MEK
[5] = test system: keratinocytes; conditions: keratinocytes stimulated with a variety of agents
[6] = test system: MMP; conditions: IL-1b and TNF-a, fibroblasts; cited from earlier work
[7] = test system: neutrophils; conditions: U0126 at 10 mM; in response to IL-8 and LTB4
[8] = test system: b2 integrin; conditions: U0126 at 10 mM
[9] = test system: keratinocyte; conditions: pituitary growth factor extract, primarily FGF
[10] = test system: T cell; conditions: in response to TCR engagement; cited from earlier work
[11] = test system: human tumor cell lines
[12] = test system: Cox-2
[13] = test system: freshly isolated human monocytes and THP-1 cells
[14] = test system: neutrophils
[15] = test system: RAS-transformed cells
[16] = test system: Swiss 3T3 cells; conditions: PDGF-stimulated Swiss 3T3 cells; cited from earlier work
[17] = test system: 5-lipoxygenase; conditions: HL-60 cells; cited from earlier work
[18] = test system: HL-60 cells; conditions: cited from earlier work
[19] = test system: UM-SCC-1 and MDA-TV-138; conditions: controlled by EGF, TGFa and FGF; cited from earlier work
[20] = test system: RAS-transformed cells; conditions: cited from earlier work
[21] = test system: neutrophils, mast cells, or endothelial cells; conditions: opsonized zymosan, aggregation of high affinity IgG receptor, or thrombin, respectively; cited from earlier work
[22] = test system: UM-SCC-1 cells; conditions: cited from earlier work
[23] = test system: ERK; conditions: agonists fMLP, IL-8, C5a and LTB4; cited from earlier work
[24] = test system: neutrophils; conditions: in response to all agents (fMLP, IL-8, C5a, LTB4); cited from earlier work
[25] = test system: Cox-2; conditions: RAW 264.7 cells; cited from earlier work
[26] = test system: SMC (Smooth Muscle Cell); conditions: at concentrations which inhibit ERK activation; cited from earlier work
[27] = test system: T cells; conditions: cited from earlier work
[28] = test system: neutrophils; conditions: cited from earlier work
[29] = test system: monocytes; conditions: LPS treatment of monocytes; cited from earlier work
[30] = test system: Cox-2; conditions: LPA-stimulated rat mesangial cells; cited from earlier work

Compound N#CC(=C(N)Sc1ccc(N)cc1)c1cccc(C(O)c2ccncc2)c1 (centres unmarked) has a melting point of 146.5 to 147.5 °C.
With Cc1ccccc1C(C(C#N)=C(N)Sc1ccccc1N)c1ccc(Cl)cc1 (centres unmarked) the melting point was 63.5 to 72 °C.
In the case of N#CC(=C(/N)Sc1ccccc1N)/C(C#N)=C(\N)Sc1ccccc1N [Example U0126], the “ERK activation in neutrophils” value [1] is listed as “blocks ERK activation”, the PDGF-dependent growth [2] is listed as “prevents PDGF-dependent growth” and the “ERK activation in T cells” value [3] is listed as “prevents ERK activation”. For the same compound, the “type of inhibition, comparative kinetic analysis” value [4] was “non-competitive inhibitors of activated MEK”, the arachidonic acid release [5] was “block arachidonic acid release” and the “prostaglandin and leukotriene synthesis” value [5] was “block”. The MMP induction [6] was “block MMP induction”, the “block of chemotaxis through a fibrin gel” value [7] was over 80% and the “blunting of up regulation of b2 integrin on the cell surface” value [8] was 50%. The keratinocyte proliferation [9] was “blocks keratinocyte proliferation”, the IL-2 synthesis [10] was “blocked” and the “T cell activation and proliferation” value [10] was “blocked”. The “growth of human tumor cell lines in soft agar” value [11] was “can prevent cell growth in some cells, but not all”, the Cox-2 induction ([12]; TPA-stimulated fibroblasts) was “inhibits Cox-2 induction” and the “serum induction of the Cox-2 transcript” value ([12]; fibroblasts, serum) was “does not impede serum induction of the Cox-2 transcript”. The LPS-induced cytokine production [13] was “inhibitable”, the NADPH-oxidase activity [14] was “does not impair NADPH-oxidase activity” and the bacterial cell killing [14] was “does not impair”. For the same compound, the “cell growth under normal culture conditions” value ([15]; normal culture conditions) was “minimal effects on cell growth” and the “growth of RAS-transformed cells in soft agar” value ([15]; soft agar) was “impede the growth”.
In the case of COc1cccc(-c2cc(=O)c3ccccc3o2)c1N [PD 098059], the “thymidine incorporation into DNA” value [16] is listed as “blocks thymidine incorporation into DNA”, the “5-lipoxygenase translocation from cytosol to nuclear membrane and activation (5-HETE production)” value [17] is listed as “inhibited” and the “type of inhibition, comparative kinetic analysis” value [4] is listed as “non-competitive inhibitors of activated MEK”. For the same compound, the MEK activity [4] was “inhibits MEK activity”, the fMLP-stimulated superoxide generation [18] was “inhibited” and the urokinase secretion [19] was “reduce urokinase secretion”. The “cell growth under normal culture conditions” value ([20]; normal culture conditions) was “minimal effects on cell growth”, the “growth of RAS-transformed cells in soft agar” value ([20]; soft agar) was “impede the growth” and the arachidonic acid release [21] was “blocks arachidonic acid release”. The cellular proliferation rate [22] was “not affected”, the “in vitro invasiveness through an extracellular matrix-coated porous filter” value [22] was “blocked” and the “ERK activation in neutrophils” value [23] was “blocked”. For the same compound, the neutrophil chemotaxis [24] was “blocks neutrophil chemotaxis”, the “LPS-induced Cox-2 expression” value [25] was “partially blocked” and the “PDGF-BB-dependent SMC chemotaxis” value [26] was “prevents PDGF-BB-dependent SMC (Smooth Muscle Cell) chemotaxis”. For the same compound, the IL-2 production ([27]; anti-CD3 antibody with anti-CD28 or PMA) was “blocked IL-2 production”, the T cell proliferation ([27]; anti-CD3 antibody, reversed by IL-2) was “inhibit T cell proliferation” and the “production of IL-4, IL-5 and IL-13” value ([27]; similarly stimulated T cell cultures) was “enhanced production”. For the same compound, the “TNFa, IL-3 GM-CSF, IFN-g, IL-6 and IL-10 production” value ([27]; stimulated T cells) was “blocked”, the superoxide anion production [28] was “does not alter superoxide anion production” and the cytokine production [29] was “blocked”. For the same compound, the Cox-2 induction [30] was “inhibits Cox-2 induction”.
